The values below come from US9868737B2, “Pyridino[1,2-A]pyrimidone analogue used as MTOR/P13K inhibitor” (CISEN PHARMACEUTICAL CO., LTD., priority 2014, dated 2018).

Like-named read-outs stand apart in the source and are kept apart here.

This assay deals with MCF-7 cells. Nature of the assay: In vitro test of cell activity (MCF-7 cells, insulin stimulation, ELISA-One fluorescence). The format is cell-based. The settings on record: Homo sapiens, MCF7, MCF-7 cells; for inhibition at 1 µM: conc. 1 μM; for inhibition at 0.5 µM: conc. 0.5 μM; for inhibition at 0.25 µM: conc. 0.25 μM. Summed up:
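MCF-7 cells, seeded at 2.5×10^4/well in 10% FBS medium, were given compound in serum-free medium for 2 h at one concentration (screen) or a series (IC50). Insulin stimulation followed at […] final for 30 min; lysates assayed by ELISA-One sandwich immunoassay with fluorescence read-out.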
(In general: ELISA stands for enzyme-linked immunosorbent assay.)

Turning to `COc1ncc(-c2ccc3nccc(=O)n3c2)cc1NS(=O)(=O)c1ccccc1` [compound 12], the inhibition (usually the change of the read-out against control, counted positive when it falls) at 1 µM was 95.4% (read-out: % inhibition AKT) and 91.5% (read-out: % inhibition p70s6k). Further, the IC50 – broadly, the concentration that gives 50% inhibition – lay within 50 to 100 nM (read-out: IC50 p-AKT) and 100 to 250 nM (read-out: IC50 p-p70S6K).
As for `COc1ncc(-c2cn3c(=O)ccnc3cc2F)cc1NS(=O)(=O)c1cccc(F)c1` [compound 115], the inhibition at 0.5 µM reads like this: (read-out: % inhibition AKT) 43.6%; (read-out: % inhibition p70s6k) 6.5%.
For `COc1ncc(-c2ccc3ncc(Cl)c(=O)n3c2)cc1NS(=O)(=O)c1ncc(C)s1` [compound 162], the inhibition at 0.25 µM by setting is: (read-out: % inhibition AKT) 77.8%; (read-out: % inhibition p70s6k) 64.9%. The IC50 lay within 50 to 100 nM (read-out: IC50 p-AKT) and 100 to 250 nM (read-out: IC50 p-p70S6K).
`COc1ncc(-c2ccc3nccc(=O)n3c2)cc1NS(=O)(=O)c1ccc(Cl)cc1` [compound 23]: the inhibition at 1 µM (read-out: % inhibition AKT) worked out at 95.7% and the inhibition at 1 µM (read-out: % inhibition p70s6k) came to 93.9%. Also, the IC50 reads like this: (read-out: IC50 p-AKT) no more than 50 nM; (read-out: IC50 p-p70S6K) 100 to 250 nM.
With `COc1ncc(-c2ccc3ncc(OC)c(=O)n3c2)cc1NS(=O)(=O)c1ccccc1Cl` [compound 105], the inhibition at 0.5 µM is, setting by setting: (read-out: % inhibition AKT) 95.4%; (read-out: % inhibition p70s6k) 90.3%. Moreover, the IC50 was no more than 50 nM (read-out: IC50 p-AKT) and no more than 50 nM (read-out: IC50 p-p70S6K).
Take `O=c1ccnc2ccc(-c3cnc(Cl)c(NS(=O)(=O)c4ccccc4F)c3)cn12` [compound 19]: the inhibition at 1 µM was 91.2% (read-out: % inhibition AKT) and 74.1% (read-out: % inhibition p70s6k). The IC50 runs as follows: (read-out: IC50 p-AKT) no more than 50 nM; (read-out: IC50 p-p70S6K) greater than 250 nM.
Take `COc1ncc(-c2cn3c(=O)ccnc3cc2C)cc1NS(=O)(=O)c1cc(F)ccc1F` [compound 131]: the inhibition at 0.5 µM (read-out: % inhibition AKT) was -27% and the inhibition at 0.5 µM (read-out: % inhibition p70s6k) came out at 4.5%.
On the same counts, the results for `COc1ncc(-c2ccc3ncc(Cl)c(=O)n3c2)cc1NS(=O)(=O)c1cccc(F)c1` [compound 138] are 68.9% and 73.8%.
As for `COCCOc1cnc2ccc(-c3cnc(OC)c(NS(=O)(=O)c4ccc(F)cc4F)c3)cn2c1=O` [compound 175, 2,4-difluoro-N-(2-methoxy-5-(3-(2-methoxyethoxy)-4-oxo-4H-pyrido[1,2-a]pyrimidin-7-yl)pyridin-3-yl)benzsulfamide], the inhibition at 0.25 µM runs as follows: (read-out: % inhibition AKT) 75.2%; (read-out: % inhibition p70s6k) 65.4%. Moreover, the IC50 runs as follows: (read-out: IC50 p-AKT) 50 to 100 nM; (read-out: IC50 p-p70S6K) 100 to 250 nM.
Turning to `COc1ncc(-c2ccc3ncc(N)c(=O)n3c2)cc1NS(=O)(=O)c1ccc(F)cc1C` [compound 89], the inhibition at 0.5 µM (read-out: % inhibition AKT) is 93% and the inhibition at 0.5 µM (read-out: % inhibition p70s6k) was 88.1%. Besides, the IC50 by setting is: (read-out: IC50 p-AKT) no more than 50 nM; (read-out: IC50 p-p70S6K) 100 to 250 nM.
Regarding `COCCOc1cnc2ccc(-c3cnc(OC)c(NS(=O)(=O)c4sc(N)nc4C)c3)cn2c1=O` [compound 183], under “read-out: IC50 p-AKT”, the IC50 was no more than 50 nM.
For `COc1ncc(-c2ccc3ncc(Cl)c(=O)n3c2)cc1NS(=O)(=O)c1c(C)n[nH]c1C` [compound 163], the inhibition at 0.25 µM (read-out: % inhibition AKT) was determined as 78.1% and the inhibition at 0.25 µM (read-out: % inhibition p70s6k) is 88.8%. The IC50 runs as follows: (read-out: IC50 p-AKT) 100 to 250 nM; (read-out: IC50 p-p70S6K) 50 to 100 nM.
Take `COc1ncc(-c2cn3c(=O)ccnc3cc2C)cc1NS(=O)(=O)c1ccc(F)cc1C` [compound 126]: the inhibition at 0.5 µM was -12.7% (read-out: % inhibition AKT) and 2.4% (read-out: % inhibition p70s6k).
On to `COCOc1cnc2ccc(-c3cnc(OC)c(NS(=O)(=O)c4sc(N)nc4C)c3)cn2c1=O` [compound 184], for which the IC50 (read-out: IC50 p-AKT) lay in the range of 50 to 100 nM.
Same read-out and setting: next, `COc1ncc(-c2ccc3n[nH]c(=O)n3c2)cc1NS(=O)(=O)c1ccc(F)cc1F` [compound 235]: 100 to 250 nM; `COc1ncc(-c2ccc3ncc(OCC4COC4)c(=O)n3c2)cc1NS(=O)(=O)c1ccccc1F` [compound 256]: no more than 50 nM.
Regarding `COc1ncc(-c2ccc3ncc(-n4ccc(C)n4)c(=O)n3c2)cc1NS(=O)(=O)c1ccccc1Cl` [compound 220], the inhibition at 0.25 µM came out at 51.2% (read-out: % inhibition AKT) and 11% (read-out: % inhibition p70s6k).
As to `COc1ncc(-c2ccc3nccc(=O)n3c2)cc1NS(=O)(=O)c1sccc1C` [compound 37], the inhibition at 0.5 µM (read-out: % inhibition AKT) was 95.8% and the inhibition at 0.5 µM (read-out: % inhibition p70s6k) worked out at 90.3%. Also, the IC50 was no more than 50 nM (read-out: IC50 p-AKT) and 100 to 250 nM (read-out: IC50 p-p70S6K).
On to `COc1ncc(-c2ccc3ncc(Cl)c(=O)n3c2)cc1NS(=O)(=O)c1ccc(C)cc1Cl` [compound 152], for which the inhibition at 0.25 µM reads like this: (read-out: % inhibition AKT) 94%; (read-out: % inhibition p70s6k) 83.9%. For the same compound, the IC50 is no more than 50 nM (read-out: IC50 p-AKT) and no more than 50 nM (read-out: IC50 p-p70S6K).
`COc1ncc(-c2ccc3nccc(=O)n3c2C)cc1NS(=O)(=O)c1ccc(F)cc1F` [compound 52, 2,4-difluoro-N-(2-methoxy-5-(6-methyl-4-oxo-4H-pyrido[1,2-a]pyrimidin-7-yl)pyridin-3-yl)benzsulfamide]: the inhibition at 0.5 µM is, setting by setting: (read-out: % inhibition AKT) 69.3%; (read-out: % inhibition p70s6k) 50.3%.
For `COc1ncc(-c2ccc3nccc(=O)n3c2)cc1NS(=O)(=O)C1CC1` [compound 9], the inhibition at 1 µM was found to be 76% (read-out: % inhibition AKT) and 38.4% (read-out: % inhibition p70s6k).
`COc1ncc(-c2ccc3ncc(OCCOCC(F)(F)F)c(=O)n3c2)cc1NS(=O)(=O)c1sc(C)nc1C` [compound 202]: the IC50 (read-out: IC50 p-AKT) was no more than 50 nM.
Take `COc1ncc(-c2ccc3nccc(=O)n3n2)cc1NS(=O)(=O)c1ccc(C(F)(F)F)cc1` [compound 80]: the inhibition at 0.5 µM was determined as 54.6% (read-out: % inhibition AKT) and 14.4% (read-out: % inhibition p70s6k).
As to `Cc1ncc(-c2ccc3nccc(=O)n3c2)cc1NS(=O)(=O)c1ccc(F)cc1` [compound 8], the inhibition at 1 µM was 84.6% (read-out: % inhibition AKT) and 60.5% (read-out: % inhibition p70s6k).
Turning to `COc1ncc(-c2ccc3ncc(O)c(=O)n3c2)cc1NS(=O)(=O)c1ccc(F)cc1F` [compound 101, 2,4-difluoro-N-(5-(3-hydroxy-4-oxo-4H-pyrido[1,2-a]pyrimidin-7-yl)-2-methoxypyridin-3-yl) benzsulfamide], the inhibition at 0.25 µM stood at 25% (read-out: % inhibition AKT) and 8.6% (read-out: % inhibition p70s6k).
As to `COc1ncc(-c2ccc3ncc(OC)c(=O)n3c2)cc1NS(=O)(=O)c1ccc(F)cc1F` [compound 103, 2,4-difluoro-N-(2-methoxy-5-(3-methoxy-4-oxo-4H-pyrido[1,2-a]pyrimidin-7-yl)pyridin-3-yl) benzsulfamide], the inhibition at 0.5 µM was 94.5% (read-out: % inhibition AKT) and 89.4% (read-out: % inhibition p70s6k). Moreover, the IC50 by setting is: (read-out: IC50 p-AKT) no more than 50 nM; (read-out: IC50 p-p70S6K) 50 to 100 nM.
On to `COc1ncc(-c2ccc3nccc(=O)n3c2)cc1NS(=O)(=O)c1cccc(F)c1` [compound 3], for which the inhibition at 1 µM reads like this: (read-out: % inhibition AKT) 95.9%; (read-out: % inhibition p70s6k) 52.4%. The IC50 is 50 to 100 nM (read-out: IC50 p-AKT) and 50 to 100 nM (read-out: IC50 p-p70S6K).
`COc1ncc(-c2ccc3ncc(F)c(=O)n3c2)cc1NS(=O)(=O)c1ccccc1Cl` [compound 63]: the inhibition at 0.5 µM runs as follows: (read-out: % inhibition AKT) 89.5%; (read-out: % inhibition p70s6k) 92.9%. Besides, the IC50 (read-out: IC50 p-AKT) is no more than 50 nM and the IC50 (read-out: IC50 p-p70S6K) was no more than 50 nM.
For `COc1ncc(-c2ccc3nccc(=O)n3c2C)cc1NS(=O)(=O)c1cccc(F)c1` [compound 53], the inhibition at 0.5 µM (read-out: % inhibition AKT) is 68% and the inhibition at 0.5 µM (read-out: % inhibition p70s6k) was 40.9%.
Regarding `COc1ncc(-c2ccc3ncc(OCCOC(C)C)c(=O)n3c2)cc1NS(=O)(=O)c1sc(C)nc1C` [compound 194], the IC50 (read-out: IC50 p-AKT) is no more than 50 nM.
On the same count and under the same terms, with `COCCOc1cnc2ccc(-c3cnc(OC)c(NS(=O)(=O)c4ccc(F)c(F)c4F)c3)cn2c1=O` [compound 274] the figure was 50 to 100 nM.
`COc1ncc(-c2ccc3ncc(Cl)c(=O)n3c2)cc1NS(=O)(=O)c1cnc(C)s1` [compound 156]: the inhibition at 0.25 µM was determined as 77.9% (read-out: % inhibition AKT) and 74.1% (read-out: % inhibition p70s6k). Also, the IC50 runs as follows: (read-out: IC50 p-AKT) 50 to 100 nM; (read-out: IC50 p-p70S6K) 100 to 250 nM.
For `COc1ncc(-c2ccc3nccc(=O)n3c2)cc1NS(=O)(=O)CC(F)(F)F` [compound 13], the inhibition at 1 µM is, setting by setting: (read-out: % inhibition AKT) 78.3%; (read-out: % inhibition p70s6k) 53%.
Take `COc1ncc(-c2ccc3ncc(OCCOC4CC4)c(=O)n3c2)cc1NS(=O)(=O)c1sc(C)nc1C` [compound 204]: the IC50 (read-out: IC50 p-AKT) is no more than 50 nM.
Consider `COCCCOc1ncc(-c2ccc3ncc(Cl)c(=O)n3c2)cc1NS(=O)(=O)c1ccc(F)cc1F` [compound 232], for which, where the note is “read-out: IC50 p-AKT”, the IC50 was greater than 250 nM.
In the case of `COCCOc1cnc2ccc(-c3cnc(OC)c(NS(=O)(=O)c4ccc(F)cc4C(F)(F)F)c3)cn2c1=O` [compound 278], the IC50 (read-out: IC50 p-AKT) was no more than 50 nM.
With `COc1ncc(-c2cn3c(=O)ccnc3cn2)cc1NS(=O)(=O)c1ccc(F)cc1F` [compound 39, 2,4-difluoro-N-(2-methoxy-5-(4-oxo-4H-pyrazino[1,2-a]pyrimidin-7-yl)pyridin-3-yl)benzsulfamide], the inhibition at 0.5 µM (read-out: % inhibition AKT) was -28.6% and the inhibition at 0.5 µM (read-out: % inhibition p70s6k) amounted to 7.1%.
In the case of `COc1ncc(-c2ccc3ncc(OC4CCC(OC)CC4)c(=O)n3c2)cc1NS(=O)(=O)c1sc(C)nc1C` (stereo not shown) [compound 207], the IC50 (read-out: IC50 p-AKT) fell in the range of 50 to 100 nM.
Regarding `CCOc1cnc2ccc(-c3cnc(OC)c(NS(=O)(=O)c4ccc(F)cc4Cl)c3)cn2c1=O` [compound 172], the inhibition at 0.25 µM reads like this: (read-out: % inhibition AKT) 83.5%; (read-out: % inhibition p70s6k) 74.4%. Also, the IC50 was no more than 50 nM (read-out: IC50 p-AKT) and 100 to 250 nM (read-out: IC50 p-p70S6K).
Turning to `COCCOc1cnc2ccc(-c3cnc(OC)c(NS(=O)(=O)c4sc(OC)nc4C)c3)cn2c1=O` [compound 195], the IC50 (read-out: IC50 p-AKT) was no more than 50 nM.
As for `COc1ncc(-c2ccc3ncc(OCC4CCOC4)c(=O)n3c2)cc1NS(=O)(=O)c1sc(C)nc1C` (stereo not shown) [compound 200], the IC50 (read-out: IC50 p-AKT) was no more than 50 nM.
Regarding `COc1ncc(-c2ccc3ncc(F)c(=O)n3c2)cc1NS(=O)(=O)c1c(F)cccc1F` [compound 68], the inhibition at 0.5 µM runs as follows: (read-out: % inhibition AKT) 88%; (read-out: % inhibition p70s6k) 90.3%. The IC50 reads like this: (read-out: IC50 p-AKT) no more than 50 nM; (read-out: IC50 p-p70S6K) 50 to 100 nM.
